Experimental data reported in patent US4450166A, “N-(4,5-Dihydro-thiazol-2-yl)-3-quinoline-carboxamides having anxiolytic activity” (Roussel Uclaf, priority 1981, dated 1984).
Counter-ions that a name gives are not always drawn. Like-named read-outs stand apart in the source and are kept apart here.

Tests used:
[1] = derivative of French Pat. No. 2,340,735; cited from earlier work
[2] = derivative of French Pat. No. 2,340,735; cited from earlier work; remark: listed apart in the source
[3] = Anxiolytic activity (electric shock test, Apelab apparatus, Boissier et al); format: in vivo, mice; conditions: oral; for ED (maximum): Mus musculus, 0.5 h, 30 minutes before the test, groups of 10 mice, shocks over one minute, read-out: oral dose at which the number of delivered shocks increased to the maximum; for anxiolytic activity (in words): mice
Description: The Apelab apparatus and protocol used by Boissier et al [European J. Pharmacol., Vol. 4 (1968), p. 145] were used to determine the anxiolytic activity and 4 plates were connected to a stimulator (U. Sachs, Roucaire) which delivered electric shocks of 120 volts for 0.5 seconds. The test was effected on groups of 10 mice who had orally received the test compound 30 minutes before the test. Each animal was individually placed on the apparatus and after 15 seconds of free exploration, it was subjected to an electric shock each time as it passed from plate to another, a minimum of 3 seconds being observed between 2 shocks. The number of delivered shocks was determined over one minute and the obtained results were compared to those observed on control animals by the Dunnett test.

[4] = target: receptors for benzodiazepines; assay: Affinity for receptors for benzodiazepines (inhibition of specific bonding of ^3 H diazepam); format: binding; conditions: ^3 H diazepam 10^-9 M, rat cortex, pH of 7.4
Description: The test was inspired by Mohler et al. [Science, No. 198 (1977), p. 849-851] and one part of the cortex removed from the brains of males rats weighing an average of […] per 20 parts by volume of 0.32 M of sucrose solution was homogenized. After centrifugation at 1000 g of the homogenized mixture at 0° C. for 10 minutes, the surnagent was centrifuged at 30,000 g at 4° C. for 20 minutes and the culot was suspended in 20 volumes of buffered 50 mM. Tris HCl with a pH of 7.4. The suspension was centrifuged at 30,000 g for 20 minutes at 4° C. and the new culot was suspended in 50 ml of buffered Krebs Tris HCl with a pH of 7.4. Following incubation at 0° C. for 30 minutes, 2 ml of the suspension in the presence of ^3 H diazepam at a concentration of 10^-9 M alone and with increasing concentrations of the test product to determine non-specific fixation with non-radioactive diazepam at a concentration of 10^-6 M.
The incubated suspension were filtered through a Whatman GF/C filter and the filters were washed twice at 0° C. with 5 ml of buffered krebs. Tris HCl with a pH of 7.4. The radioactivity of the filter was measured by liquid scintillation and the activity of the product was expressed in I.C.50 or the concentration which inhibits by 50% the specific bonding of ^3 H diazepam determined graphically.

Acute toxicity = format: in vivo; conditions: oral, mice
[5] = system: plasmatic corticosterone level; assay: Action against stress caused by noise by plasmatic corticosterone level; format: in vivo; conditions: Rattus norvegicus; oral; groups of 5 rats fasted 24 hours; noise stress one hour later; read-out: DE50 (oral dose which reduced by 50% the level of corticosterone)
Description: The test was effected on groups of 5 rats fasted for 24 hours receiving orally the test compound between 8 and 9 in the morning. One hour later, stress was applied to the animals by placing them in a cage with a noisily operated radio adjacent thereto. 30 minutes later, they received an intraperitonal prick and 10 minutes later, the animals were anesthesized with halothane. 3 ml blood samples were taken after decapitation and the seric levels of corticosterone were determined by a radio-immunological method. Counts were taken of the importance in the male rat of seric concentrations of corticosterone to determine directly without previous extraction of the hormone with 0.1 ml of the sample diluted to 1 to 100. To the test sample were added in hemolysis tubes (12×65 mm) 0.1 ml of an aqueous solution of ^3 H-- corticosterone (5000 spm) and 0.5 ml of buffered phosphate solution (0.02 M; pH of 6.9) containing 0.02% of gelatine and 0.02% of sodium nitride containing a suspension of anticorticosterone antiserum (dilution 1/300,000), sheep antiserum anti γ-globuline of rabbit (dilution of 1/50) and normal serum of rabbit treated with Dextran carbon (dilution 1/500).
The volume was adjusted to 1 ml and the mixture was incubated overnight at 4° C. The mixture was centrifuged at 3000 t/mn for 20 minutes and the surnageant was discarded. The radioactivity contained in the precipitate was measured by a counter after addition of 2 ml of scintillation liquid containing 5% of Soluene 350. The concentration of corticosterone was determined with a standard curve (0-4000 pg) established under the treatment conditions of the samples. The individual seric level of corticosterone expressed in μg/100 ml was determined as the average of 3 tests and the results were compared by the Student test to those obtained in control animals not subjected to stress. The results expressed as DE50 on the oral dose which reduced by 50% the level of corticosterone in the treated animals is reported in Table III.

SMILES | analgesic activity (in words) [1] | anxiolytic activity (in words) [2] | ED (maximum) [3] [mg/kg] | anxiolytic activity (in words) [3] | IC50 [4] [nM] | DL0 (maximum dose which did not cause any mortality after 8 days) (Acute toxicity) [mg/kg] | ED50 [5] [mg/kg]
O=C(NC1=NCCS1)c1cnc2c(C(F)(F)F)cccc2c1O | has analgesic activity | devoid of anxiolytic activity | – | – | – | – | –
Cl.O=C(NC1=NCCS1)c1cnc2ccccc2c1O [Example 1, N-(4,5-dihydro-thiazol-2-yl)-4-hydroxy-3-quinoline-carboxamide hydrochloride] | – | – | 10 | good anxoilytic activity | 0.5 | > 400 | 10
CCc1ccc2ncc(C(=O)NC3=NCCS3)c(O)c2c1.Cl [Example 2, N-(4,5-dihydro-thiazol-2-yl)-6-ethyl-4-hydroxy-3-quinoline-carboxamide hydrochloride] | – | – | 20 | good anxoilytic activity | 0.3 | > 400 | 15
Cc1ccc2ncc(C(=O)NC3=NCCS3)c(O)c2c1 [Example 3, N-(4,5-dihydro-thiazol-2-yl)-6-methyl-4-hydroxy-3-quinoline-carboxamide hydrochloride] | – | – | – | – | 1.5 | – | –
CC(C)c1ccc2ncc(C(=O)NC3=NCCS3)c(O)c2c1 [Example 4, N-(4,5-dihydro-thiazol-2-yl)-6-isopropyl-4-hydroxy-3-quinoline-carboxamidehydrochloride] | – | – | 20 | good anxoilytic activity | 2.2 | > 1000 | 50
O=C(NC1=NCCS1)c1cnc2cc(Cl)ccc2c1O [Example 5, N-(4,5-dihydro-thiazol-2-yl)-7-chloro-4-hydroxy-3-quinoline-carboxamide hydrochloride] | – | – | – | – | 0.9 | > 1000 | –
O=C(NC1=NCCS1)c1cnc2ccc(Cl)cc2c1O [Example 6, N-(4,5-dihydro-thiazol-2-yl)-6-chloro-4-hydroxy-3-quinoline-carboxamide hydrochloride] | – | – | 50 | good anxoilytic activity | 1 | > 400 | 50
O=C(NC1=NCCS1)c1cnc2ccc(F)cc2c1O [Example 7, N-(4,5-dihydro-thiazol-2-yl)-6-fluoro-4-hydroxy-3-quinoline-carboxamide hydrochloride] | – | – | – | – | 1.3 | – | –
COc1ccc2c(O)c(C(=O)NC3=NCCS3)cnc2c1 [Example 8, N-(4,5-dihydro-thiazol-2-yl)-7-methoxy-4-hydroxy-3-quinoline-carboxamide hydrochloride] | – | – | 20 | good anxoilytic activity | 1.2 | > 400 | –
Cc1nc2ccccc2c(O)c1C(=O)NC1=NCCS1 [Example 9, N-(4,5-dihydro-thiazol-2-yl)-2-methyl-4-hydroxy-3-quinoline-carboxamide hydrochloride] | – | – | 10 | good anxoilytic activity | 2.6 | > 1000 | 10
